Legend:
[1] = Antiproliferative activity against over expressing […] human WSU-DLCL2 cells; type: functional; details: WSUDLCL2
SUD4 [2] = test: Antiproliferative activity against over expressing […] human SUDHL4 cells; type: functional, cell-based; details: SU-DHL-4
MV4-11 = test: Antiproliferative activity against human MV4-11 cells; type: functional, cell-based
SUD4 [3] = test: Induction of apoptosis in human SUDHL4 cells assessed as necrotic cells at 1 uM after 6 days by AnnexinV/propidium iodide staining based flow cytometry analysis (reference value: 0.737 %); type: functional
SUD4 [4] = test: Induction of apoptosis in human SUDHL4 cells assessed as viable cells at 1 uM after 6 days by AnnexinV/propidium iodide staining based flow cytometry analysis (reference value: 92.7 %); type: functional; details: SU-DHL-4, 144 h, read-out: Activity
SUD4 [5] = test: Induction of apoptosis in human SUDHL4 cells assessed as early apoptotic cells at 1 uM after 6 days by AnnexinV/propidium iodide staining based flow cytometry analysis (reference value: 0.061 %); type: functional
SUD4 [6] = test: Induction of apoptosis in human SUDHL4 cells assessed as late apoptotic cells at 1 uM after 6 days by AnnexinV/propidium iodide staining based flow cytometry analysis (reference value: 2.01 %); type: functional
SUD4 [7] = test: Induction of apoptosis in human SUDHL4 cells assessed as necrotic cells at 2 uM after 6 days by AnnexinV/propidium iodide staining based flow cytometry analysis (reference value: 0.737 %); type: functional
SUD4 [8] = test: Induction of apoptosis in human SUDHL4 cells assessed as viable cells at 2 uM after 6 days by AnnexinV/propidium iodide staining based flow cytometry analysis (reference value: 92.7 %); type: functional; details: SU-DHL-4, 144 h, read-out: Activity
SUD4 [9] = test: Induction of apoptosis in human SUDHL4 cells assessed as early apoptotic cells at 2 uM after 6 days by AnnexinV/propidium iodide staining based flow cytometry analysis (reference value: 0.061 %); type: functional
SUD4 [10] = test: Induction of apoptosis in human SUDHL4 cells assessed as late apoptotic cells at 2 uM after 6 days by AnnexinV/propidium iodide staining based flow cytometry analysis (reference value: 2.01 %); type: functional
SUD4 [11] = test: Induction of apoptosis in human SUDHL4 cells assessed as necrotic cells at 4 uM after 6 days by AnnexinV/propidium iodide staining based flow cytometry analysis (reference value: 0.737 %); type: functional
SUD4 [12] = test: Induction of apoptosis in human SUDHL4 cells assessed as viable cells at 4 uM after 6 days by AnnexinV/propidium iodide staining based flow cytometry analysis (reference value: 92.7 %); type: functional; details: SU-DHL-4, 144 h, read-out: Activity
SUD4 [13] = test: Induction of apoptosis in human SUDHL4 cells assessed as early apoptotic cells at 4 uM after 6 days by AnnexinV/propidium iodide staining based flow cytometry analysis (reference value: 0.061 %); type: functional
SUD4 [14] = test: Induction of apoptosis in human SUDHL4 cells assessed as late apoptotic cells at 4 uM after 6 days by AnnexinV/propidium iodide staining based flow cytometry analysis (reference value: 2.01 %); type: functional
[15] = target: T1, Histone-lysine N-methyltransferase EZH2 (Homo sapiens, UniProt Q15910); test: Inhibition of EZH2 in human SUDHL4 cells assessed as reduction in H3K27 methylation measured after 6 days by western blot analysis; type: cell-based; details: SUD4
Target sequence in this assay (Q15910 whole entry, looked up): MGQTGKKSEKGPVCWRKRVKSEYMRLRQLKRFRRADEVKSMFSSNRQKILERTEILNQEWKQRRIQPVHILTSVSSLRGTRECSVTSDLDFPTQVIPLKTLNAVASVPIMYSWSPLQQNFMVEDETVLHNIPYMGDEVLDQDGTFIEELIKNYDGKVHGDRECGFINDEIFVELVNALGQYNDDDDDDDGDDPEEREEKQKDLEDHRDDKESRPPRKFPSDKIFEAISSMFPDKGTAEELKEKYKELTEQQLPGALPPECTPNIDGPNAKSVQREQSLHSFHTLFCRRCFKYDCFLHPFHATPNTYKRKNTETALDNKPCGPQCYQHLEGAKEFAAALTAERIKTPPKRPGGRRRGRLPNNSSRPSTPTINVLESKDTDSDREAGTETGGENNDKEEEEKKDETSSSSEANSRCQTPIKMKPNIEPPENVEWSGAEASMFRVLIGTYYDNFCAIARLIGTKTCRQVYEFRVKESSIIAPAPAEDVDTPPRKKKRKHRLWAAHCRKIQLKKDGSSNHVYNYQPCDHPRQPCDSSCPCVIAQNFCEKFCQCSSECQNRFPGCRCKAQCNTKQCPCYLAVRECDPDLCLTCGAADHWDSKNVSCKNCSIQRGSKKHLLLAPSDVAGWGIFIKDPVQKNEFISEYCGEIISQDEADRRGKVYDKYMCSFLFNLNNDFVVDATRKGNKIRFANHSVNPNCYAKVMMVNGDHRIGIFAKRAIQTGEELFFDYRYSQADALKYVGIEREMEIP

[16] = target: T1, Histone-lysine N-methyltransferase EZH2; test: Inhibition of wild type EZH2 (unknown origin) by AlphaLISA assay
Target sequence in this assay (Q15910 whole entry): as the sequence (Q15910 whole entry, looked up) above

Row | Structure (SMILES) | IC50 [1] | IC50 (SUD4 [2]) | IC50 (MV4-11) | other results
1 | CCN(c1cc(/C=C/c2cccc(CN3CCOCC3)c2)cc(C(=O)NCc2c(C)c3c([nH]c2=O)CCCC3)c1C)C1CCOCC1 | > 30 µM | > 30 µM | 9.23 µM | 
2 | CCN(c1cc(/C=C/c2ccc(N3CCOCC3)nc2)cc(C(=O)NCc2c3c(c(C)[nH]c2=O)CCCC3)c1C)C1CCOCC1 | 12.6 µM | 21.7 µM | > 30 µM | 
3 | CCN(c1cc(/C=C/c2ccc(CN3C[C@@H](C)O[C@@H](C)C3)c(F)c2)cc(C(=O)NCc2c(C)c3c([nH]c2=O)CCCC3)c1C)C1CCOCC1 | > 30 µM | 20.4 µM | 12 µM | 
4 | CCN(c1cc(/C=C/c2ccc3c(c2)NC(=O)CO3)cc(C(=O)NCc2c(C)c3c([nH]c2=O)CCCC3)c1C)C1CCOCC1 | > 30 µM | 25.7 µM | 5.69 µM | 
5 | CCN(c1cc(/C=C/c2cccc(CN3CCOCC3)c2)cc(C(=O)NCc2c3c(c(C)[nH]c2=O)CCCC3)c1C)C1CCOCC1 | > 30 µM | > 30 µM | 4.44 µM | 
6 | CCN(c1cc(/C=C/c2cccc(CN(C)C)c2)cc(C(=O)NCc2c(C)c3c([nH]c2=O)CCCC3)c1C)C1CCOCC1 | 20.9 µM | 15.7 µM | 3.98 µM | 
7 | CCN(c1cc(/C=C/c2ccc(S(=O)(=O)N3CCOCC3)cc2)cc(C(=O)NCc2c(C)c3c([nH]c2=O)CCCC3)c1C)C1CCOCC1 | > 30 µM |  |  | 
8 | CCN(c1cc(/C=C/c2ccc(/C=C/C(=O)OC)cc2)cc(C(=O)NCc2c3c(c(C)[nH]c2=O)CCCC3)c1C)C1CCOCC1 | 21.2 µM |  |  | 
9 | CCN(c1cc(/C=C/c2ccc(N3CCOCC3)nc2)cc(C(=O)NCc2c(C)c3c([nH]c2=O)CCCC3)c1C)C1CCOCC1 | 25.8 µM | > 30 µM | > 30 µM | 
10 | CCN(c1cc(/C=C/c2cccc(CN(C)C)c2)cc(C(=O)NCc2c3c(c(C)[nH]c2=O)CCCC3)c1C)C1CCOCC1 | 1.61 µM | 2.34 µM | 2.8 µM | Activity (SUD4 [3]): 1.34%; viability at 1 µM (SUD4 [4]): 62.3%; Activity (SUD4 [5]): 0.112%; Activity (SUD4 [6]): 36.2%; Activity (SUD4 [7]): 4.14%; viability at 2 µM (SUD4 [8]): 25.5%; Activity (SUD4 [9]): 1.28%; Activity (SUD4 [10]): 69.1%; Activity (SUD4 [11]): 0.824%; viability at 4 µM (SUD4 [12]): 5.91%; Activity (SUD4 [13]): 0.369%; Activity (SUD4 [14]): 92.9%; inhibition [15]: Dose-dependent effect
11 | CCN(c1cc(/C=C/c2ccc(CN3C[C@@H]4C[C@H]3CO4)c(F)c2)cc(C(=O)NCc2c3c(c(C)[nH]c2=O)CCCC3)c1C)C1CCOCC1 | 9.27 µM | 15.4 µM | 21.1 µM | 
12 | CCN(c1cc(-c2ccc(CN3CCN(C)CC3)cc2)cc(C(=O)NCc2c3c(c(C)[nH]c2=O)CCCC3)c1C)C1CCOCC1 | 1.64 µM | 1.78 µM | > 30 µM | 
13 | CCN(c1cc(/C=C/c2ccc(CN3CCC4(CC3)OCCO4)cc2)cc(C(=O)NCc2c3c(c(C)[nH]c2=O)CCCC3)c1C)C1CCOCC1 | 27.7 µM | > 30 µM | 3.21 µM | IC50 [16]: 0.055 µM
14 | CCN(c1cc(/C=C/c2ccc(CN3C[C@H]4C[C@@H]3CO4)c(F)c2)cc(C(=O)NCc2c(C)c3c([nH]c2=O)CCCC3)c1C)C1CCOCC1 | 6.18 µM | > 30 µM | > 30 µM | 
15 | CCN(c1cc(/C=C/c2ccc(CN3C[C@@H]4C[C@H]3CO4)c(F)c2)cc(C(=O)NCc2c(C)c3c([nH]c2=O)CCCC3)c1C)C1CCOCC1 | 4.58 µM | 10.5 µM | 24.3 µM | 
16 | CCN(c1cc(-c2ccc(CN3CCOCC3)cc2)cc(C(=O)NCc2c(C)cc(C)[nH]c2=O)c1C)C1CCOCC1 [TAZEMETOSTAT] | 17.8 µM | 14.3 µM | 22.4 µM | 
17 | CCN(c1cc(/C=C/c2ccc(CN3CCC4(CC3)OCCO4)cc2)cc(C(=O)NCc2c(C)c3c([nH]c2=O)CCCC3)c1C)C1CCOCC1 | 17.5 µM | 21.6 µM | 3.87 µM | IC50 [16]: 0.189 µM
18 | CCN(c1cc(/C=C/c2ccc(CN3CCN(C)CC3)cc2)cc(C(=O)NCc2c3c(c(C)[nH]c2=O)CCCC3)c1C)C1CCOCC1 | 2.58 µM | 5.96 µM | > 30 µM | 
19 | CCN(c1cc(/C=C/c2ccc(CN3C[C@H]4C[C@@H]3CO4)c(F)c2)cc(C(=O)NCc2c3c(c(C)[nH]c2=O)CCCC3)c1C)C1CCOCC1 | 5.85 µM | > 30 µM | > 30 µM | 
20 | CCN(c1cc(/C=C/c2ccc(CN3CCOCC3)cc2)cc(C(=O)NCc2c(C)c3c([nH]c2=O)CCCC3)c1C)C1CCOCC1 | > 30 µM | 25.7 µM | > 30 µM | 
21 | CCN(c1cc(/C=C/c2ccc(CN3C[C@@H](C)O[C@@H](C)C3)c(F)c2)cc(C(=O)NCc2c3c(c(C)[nH]c2=O)CCCC3)c1C)C1CCOCC1 | 27.7 µM | > 30 µM | 4.36 µM | 
22 | CCN(c1cc(/C=C/c2ccc3c(c2)NC(=O)CO3)cc(C(=O)NCc2c3c(c(C)[nH]c2=O)CCCC3)c1C)C1CCOCC1 | > 30 µM | 30 µM | 4.56 µM | 
23 | CCN(c1cc(/C=C/c2ccc(S(=O)(=O)N3CCOCC3)cc2)cc(C(=O)NCc2c3c(c(C)[nH]c2=O)CCCC3)c1C)C1CCOCC1 | > 30 µM |  |  | 
24 | CCN(c1cc(/C=C/c2ccc(CN3C[C@@H](C)O[C@@H](C)C3)cc2)cc(C(=O)NCc2c3c(c(C)[nH]c2=O)CCCC3)c1C)C1CCOCC1 | > 30 µM | > 30 µM | > 30 µM | 
25 | CCN(c1cc(/C=C/c2ccc(CN3C[C@@H](C)O[C@@H](C)C3)cc2)cc(C(=O)NCc2c(C)c3c([nH]c2=O)CCCC3)c1C)C1CCOCC1 | > 30 µM | > 30 µM | 8.04 µM | 
26 | CCN(c1cc(/C=C/c2ccc(CN3CCN(C)CC3)cc2)cc(C(=O)NCc2c(C)c3c([nH]c2=O)CCCC3)c1C)C1CCOCC1 | 3.11 µM | 4.31 µM | 22.6 µM | 
27 | CCN(c1cc(/C=C/c2ccc(CN3CCOCC3)cc2)cc(C(=O)NCc2c3c(c(C)[nH]c2=O)CCCC3)c1C)C1CCOCC1 | > 30 µM | > 30 µM | 6.41 µM | 
